Where a SMILES comes first, the peptide text is derived from it. The star is where a group is joined. C20 diacid = O=C(O)CCCCCCCCCCCCCCCCCCC(=O)*; Trx = NC[C@H]1CC[C@H](C(=O)O)CC1; Inp = O=C(O)C1CCNCC1
Test: Heat accelerated stability assay under a neutral condition
Format: physicochemical
Details: pH about 7.4, 40°C; for Changes in characteristics or properties, 0d / Changes in characteristics or properties, 7d: 1 mg/mL, phosphate; for Concentration change (7d-0d)/%: Day 7 vs Day 0, reversed phase chromatography; for Purity Change% (7d-0d) / Purity Change% (26d-0d): purity from reversed phase chromatography-214 nm; for Purity Change% (7d-0d): Day 7 vs Day 0; for Purity Change% (26d-0d): Day 26 vs Day 0
Method: The lyophilized powder (1 mg/mL) of calcitonin analogues or derivatives prepared in accordance with the method of Example 1 were mixed with sodium dihydrogen phosphate (1.42 mg/mL) and dissolved in ultrapure water in the indicated mass-volume ratios. After adjusting pH to about 7.4 with hydrochloric acid/sodium hydroxide, the solution was filtered into a sterilized vial in a clean bench using a 0.22 µm sterile filter. The vial was then capped and placed into the stability test chamber at 40°C. Detections were made on Days 7 (7d) and 26 (26d), and during the assay, changes in the characteristics and properties of the polypeptides were observed and recorded. The sample was then centrifuged for 3 min at 10000 rpm at 4°C, and the supernatant was transferred to a liquid phase sample vial for detecting the concentration and purity of the polypeptides using liquid phase chromatography described as below, wherein the concentration of the polypeptide = peak area/injection volume/extinction coefficient/60×flow rate, and the purity of the polypeptide = target peak area/total peak area× 100%.
Conditions of the reversed phase chromatography Flow rate: 1.0 ml/min; Autosampler temperature: 15°C; Column temperature: 25°C; Detection wavelengths: 280 nm and 214 nm; Mobile phase A: 100% H2O+0.05% TFA; Mobile phase B: 100% ACN; and Gradient of elution listed in Table 4: Table 4. Listing of the gradient of elution in the liquid phase chromatography
Results were shown below in Tables 5, 6, and 7. A difference of more than 5% in content as compared with the initial value was typically assumed (for example, as prescribed by the Chinese Pharmacopeia (2020 Edition)) to be a significant change. Within a reasonable margin of error, a decrease of less than 1% from the initial value to the detected content is denoted as "no change" below. Table 5. Changes in characteristics or properties in the heat accelerated stability assay

Changes in characteristics or properties, 0d	Changes in characteristics or properties, 7d	Concentration change (7d-0d)/% [%]	SMILES	Purity Change% (7d-0d)	Purity Change% (26d-0d)
Clear	Clear	-3.488	CC(C)C[C@H](NC(=O)[C@H](CCCNC(=N)N)NC(=O)CNC(=O)[C@H](CC(C)C)NC(=O)[C@@H](NC(=O)[C@H](C)NC(=O)[C@@H](NC(=O)[C@H](CO)NC(=O)[C@H](CC(C)C)NC(=O)[C@H](CCC(N)=O)NC(=O)[C@H](CO)NC(=O)[C@H](C)NC(=O)C1CCN(C(=O)CCCCCCCCCCCCCCCCCCC(=O)O)CC1)[C@@H](C)O)C(C)C)C(=O)N[C@@H](CO)C(=O)N[C@@H](CC(=O)O)C(=O)N[C@@H](CCC(=O)O)C(=O)N[C@@H](CC(C)C)C(=O)N[C@@H](Cc1c[nH]cn1)C(=O)N[C@@H](CCCNC(=N)N)C(=O)N[C@@H](CC(C)C)C(=O)N[C@@H](CCC(N)=O)C(=O)N[C@@H](CC(=O)O)C(=O)N[C@@H](Cc1ccc(O)cc1)C(=O)N1CCC[C@H]1C(=O)N[C@@H](CCCNC(=N)N)C(=O)N[C@H](C(=O)N[C@@H](CC(=O)O)C(=O)N[C@H](C(=O)NCC(=O)N[C@@H](CO)C(=O)NCC(=O)N[C@@H](CO)C(=O)N1CCC[C@H]1C(N)=O)C(C)C)[C@@H](C)O [M47] ({C20 diacid-Inp}-ASQLSTAVLGRLSDELHRLQDYPRTDVGSGSP-NH2)	No change (a decrease of less than 1% from the initial value to the detected content is denoted as "no change")	No change (a decrease of less than 1% from the initial value to the detected content is denoted as "no change")
Clear	Clear	-2.670	CC(C)C[C@H](NC(=O)[C@H](CCCNC(=N)N)NC(=O)CNC(=O)[C@H](CC(C)C)NC(=O)[C@@H](NC(=O)[C@H](C)NC(=O)[C@@H](NC(=O)[C@H](CO)NC(=O)[C@H](CC(C)C)NC(=O)[C@H](CCC(N)=O)NC(=O)[C@H](CO)NC(=O)[C@H](C)NC(=O)[C@H]1CC[C@H](CNC(=O)CCCCCCCCCCCCCCCCCCC(=O)O)CC1)[C@@H](C)O)C(C)C)C(=O)N[C@@H](CO)C(=O)N[C@@H](CC(=O)O)C(=O)N[C@@H](CCC(=O)O)C(=O)N[C@@H](CC(C)C)C(=O)N[C@@H](Cc1c[nH]cn1)C(=O)N[C@@H](CCCNC(=N)N)C(=O)N[C@@H](CC(C)C)C(=O)N[C@@H](CCC(N)=O)C(=O)N[C@@H](CC(=O)O)C(=O)N[C@@H](Cc1ccc(O)cc1)C(=O)N1CCC[C@H]1C(=O)N[C@@H](CCCNC(=N)N)C(=O)N[C@H](C(=O)N[C@@H](CC(=O)O)C(=O)N[C@H](C(=O)NCC(=O)N[C@@H](CO)C(=O)NCC(=O)N[C@@H](CO)C(=O)N1CCC[C@H]1C(N)=O)C(C)C)[C@@H](C)O [M45] ({C20 diacid-Trx}-ASQLSTAVLGRLSDELHRLQDYPRTDVGSGSP-NH2)	No change (a decrease of less than 1% from the initial value to the detected content is denoted as "no change")	-1.77%
